Values of other authors in US7148350B2, “Compounds in the form of homodimeric or heterodimeric pro-drugs; process for obtaining these pro-drugs and their acceptable pharmaceutical salts and use of compounds in the treatment of phosphodiesterases-mediated diseases or dysfunction” (Cristalia Prod.Qui.Farm. LTDA, priority 2000, dated 2006).

Key:
[1] = dimer versus isolated monomers
[2] = tested on: granulocyte progenitor cells and macrophages; settings: dimer versus monomers
[3] = tested on: erectile dysfunction; settings: oral administration; patients with organic erectile dysfunction
[4] = after administration; limited by pre-systemic metabolism

## Cc1cn([C@H]2C[C@H](N=[N+]=[N-])[C@@H](CO)O2)c(=O)[nH]c1=O [AZT, zidovudine]
[1]
  EC50: 3.9 nM
After oral administration of AZT-P-DDI
  oral bioavailability: 64.7–67.3%

## Cc1cn([C@H]2C[C@H](N=[N+]=[N-])[C@@H](COP(=O)(O)OC[C@@H]3CC[C@H](n4cnc5c(=O)[nH]cnc54)O3)O2)c(=O)[nH]c1=O [AZT-P-DDI]
[1]
  EC50: 0.14 nM
[2]
  less toxicity (fold): 10 times
Intravenous administration, 50 or 100 mg
  time after which plasmatic concentration is no longer detected: 30 min
Oral administration
  detection of the dimer after oral administration: not detected

## O=c1[nH]cnc2c1ncn2[C@H]1CC[C@@H](CO)O1 [DDI, didanosine]
[1]
  EC50: 460 nM

## COC(=O)[C@@H]1[C@H]2C[C@H]3c4[nH]c5ccccc5c4CCN3C[C@@H]2CC[C@@H]1O [Yohimbine]
[3]
  effectiveness: low

## CCCc1nn(C)c2c(=O)[nH]c(-c3cc(S(=O)(=O)N4CCN(C)CC4)ccc3OCC)nc12 [sildenafil]
[4]
  absolute bioavailability: 40%
